Assay results: patent US20050085552A1, “Method for providing long-lasting pain relief through intrathecal administration of civamide” (Winston Laboratories, Inc., priority 2003, published 2005)

Legend:
neurons = test: Neurotoxicity of civamide (applicant's discovery, no method given)
[1] = type: physicochemical
Text: Civamide in amounts of 1 Φg, 5 Φg, 10 Φg, 50 Φg, and 100 Φg was dispersed in both 10 Φl and 20 Φl of each of the following: 100% dimethylsulfoxide (DMSO), normal saline (0.9% w/v sodium chloride) with 10% DMSO as suspending agent, normal saline with 0.5% DMSO and 10% cyclodextrin, 10% cyclodextrin and 10% DMSO as suspending agent, and normal saline with 10% cyclodextrin suspending agent, and normal saline with 25% DMSO. In each case, the saline was 0.9% USP.

[2] = compositions containing civamide, per U.S. Pat. No. 5,063,060; cited from earlier work
male Sprague-Dawley rats [3] = test: Tail flick, hot plate (49° C., 52° C.) and paw pressure pain models after intrathecal administration; type: in vivo, rat; settings: 1-100 Φg in 10 or 20 Φl, evaluated seven days later, paw pressure
Method: Civamide and capsaicin were each separately administered intrathecally, in dosages of 1 Φg, 5 Φg, 10 Φg, 50 Φg, or 100 Φg in either 10 Φl or 20 Φl of 0.9% USP saline with 25% DMSO suspending agent, 0.9% USP saline and 10% cyclodextrin, and 0.9% USP saline with 0.5% DMSO and 10% cyclodextrin, to male Sprague-Dawley rats into whom intrathecal catheters had been inserted. Seven days later, tail flick, hot plate (49° C., 52° C.) and paw pressure pain models were evaluated.

male Sprague-Dawley rats [4] = test: Pain models after a single intrathecal dose: thermal escape, formalin and thermal injury evoked hyperalgesia, tactile allodynia in the Chung model of neuropathy; type: in vivo, rat; settings: single intrathecal dose of 10, 25 or 50 Φg/10 Φl saline with 20% or 25% DMSO
Method: Civamide 10 Φg/10 Φl saline, 25Φg/10 Φl saline, and 50 Φg/10 Φl saline and saline itself were administered intrathecally to male Sprague-Dawley rats. Each of the civamide compositions also included either 20% DMSO or 25% DMSO as a suspending agent. The saline used was 0.9% USP. Eighteen hours, 7 days, 14 days and 28 days after administration of a single intrathecal dose of either civamide or saline, models for various types of pain were evaluated. These included models for acute nociceptive processing (i.e. thermal escape), post tissue injury hyperpathic states (i.e. formalin and thermal injury evoked hyperalgesia) and nerve injury induced hyperpathia (i.e. tactile allodynia in the Chung model of neuropathy).

## COc1cc(CNC(=O)CCCC/C=C\C(C)C)ccc1O [Civamide, cis-8-methyl-N-vanillyl-6-nonenamide]
neurons
  neurotoxicity: no significant neurotoxicity
[1]
  physical and chemical stability of compositions: physically and chemically stable
[2]
  efficacy compared with compositions containing capsaicin: comparable in efficacy
  local adverse effects compared with capsaicin: significantly less local adverse effects
Male Sprague-Dawley rats [3]
  effectiveness versus intrathecally administered capsaicin in pain models: more effective than intrathecally administered capsaicin
  effectiveness versus saline in pain models: significantly more effective than saline
Male Sprague-Dawley rats [4]
  duration of the effects of a single dose: at least 28 days
  time after administration by which effective pain amelioration was produced: ≤ 18 h
